Like-named read-outs stand apart in the source and are kept apart here.
Experiments:
[1] = target: CK2 holoenzyme (CK2 α2β2) (Homo sapiens, UniProt P68400); assay: Radiometric (P81 filter isotopic) kinase assay, CK2 holoenzyme; format: biochemical; conditions: for remaining activity at 5 µM: 5 µM compound; for remaining activity at 5 µM / remaining activity at 10 µM: read-out: Residual Activity of the Enzyme CK2 α2β2; for remaining activity at 10 µM: 10 µM compound; for Ki: calculated from IC50 by Cheng and Prusoff equation
Chain of CK2 holoenzyme (CK2 α2β2) (P68400 whole entry): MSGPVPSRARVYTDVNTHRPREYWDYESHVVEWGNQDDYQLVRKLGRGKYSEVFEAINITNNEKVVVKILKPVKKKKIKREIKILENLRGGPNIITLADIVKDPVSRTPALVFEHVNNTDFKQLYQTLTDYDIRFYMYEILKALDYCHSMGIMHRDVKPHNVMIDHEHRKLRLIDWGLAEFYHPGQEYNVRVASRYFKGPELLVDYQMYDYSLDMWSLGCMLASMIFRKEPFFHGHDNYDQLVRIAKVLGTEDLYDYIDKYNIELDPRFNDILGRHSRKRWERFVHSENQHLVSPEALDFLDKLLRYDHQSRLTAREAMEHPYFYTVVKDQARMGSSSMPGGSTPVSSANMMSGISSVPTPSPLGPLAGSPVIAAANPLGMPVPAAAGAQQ
Chain of CK2 holoenzyme (CK2 α2β2) (P67870 whole entry partner): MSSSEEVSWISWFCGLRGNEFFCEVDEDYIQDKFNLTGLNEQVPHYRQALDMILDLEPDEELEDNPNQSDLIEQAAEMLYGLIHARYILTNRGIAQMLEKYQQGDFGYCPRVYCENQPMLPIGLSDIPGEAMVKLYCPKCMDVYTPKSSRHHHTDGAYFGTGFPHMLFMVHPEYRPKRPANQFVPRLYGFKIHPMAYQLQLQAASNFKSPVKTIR

MDA-MB-231 cells = assay: MTT viability assay, MDA-MB-231; format: cell-based; conditions: Homo sapiens
Procedure: (§1) To test the anti-cancer effect of the TBBi derivatives, we treated the MCF-7 and MDA-MB-231 cells with the newly synthesized esters and previously reported compounds [34, 57] at the concentration range of 3.125 to 200 µM for 24 h, 48 h and 72 h. Additionally, the range of concentrations was extended by additional lower concentrations in MCF-7 for compound 4 with the minimum concentration of 0.195 µM. […] The EC50 values, describing the half maximal effective concentration of each tested compound, were calculated and are summarized in Table 2. […] We observed that the EC50 values increase in both cell lines with the elongation of fatty acids chain length in the tested compounds, thus strongly correlating with the decrease of their solubility in biological media as characterized by logS parameter (Table 2). The second reason for the decreased biological activity of the longer-chain aliphatic esters might be attributed to their greater resistance toward intracellular hydrolysis, which directly influences the slower release of the active form of the corresponding CK2 inhibitors. […] However, none of the tested compounds, except for compound 5, decreased the viability of both cell lines in a time-dependent manner (Figure 4).
(§2) MCF-7 and MDA-MB-231 were cultured in high-glucose Dulbecco’s modified Eagle medium (DMEM, Lonza, Basel, Switzerland) supplemented with 10% fetal bovine serum (FBS, EuroClone, Siziano, Italy)), 2 mM L-glutamine, and antibiotics (100 U/mL penicillin, 100 µg/mL streptomycin) (Sigma-Aldrich Chemical Company (St. Louis, MO, USA). Cells were grown in 75-cm^2 cell culture flasks (Sarstedt, Nümbrecht, Germany) in a humidified atmosphere of CO2/air (5%/95%) at 37 °C. All the experiments were performed in exponentially growing cultures. Stock solutions of the test compounds were prepared in DMSO and stored in −80 °C for a maximum of one month. For the cytotoxicity studies, stock solutions of the tested compounds were diluted 200-fold with the proper culture medium to obtain the final concentrations.
(§3) After incubation with the tested compounds, an MTT test was performed as described previously. Optical densities were measured at 570 nm using BioTek microplate reader (Winooski, VT, USA). All measurements were carried out in a minimum of three biological replicates.

PIM1 = PIM1 (Homo sapiens, UniProt P11309); assay: Radiometric (P81 filter isotopic) kinase assay, PIM1; format: biochemical; conditions: for remaining activity at 5 µM: 5 µM compound; for remaining activity at 5 µM / remaining activity at 10 µM: read-out: Residual Activity of the Enzyme PIM1; for remaining activity at 10 µM: 10 µM compound; for Ki: calculated from IC50 by Cheng and Prusoff equation
Chain of PIM1 (P11309 whole entry, species assumed): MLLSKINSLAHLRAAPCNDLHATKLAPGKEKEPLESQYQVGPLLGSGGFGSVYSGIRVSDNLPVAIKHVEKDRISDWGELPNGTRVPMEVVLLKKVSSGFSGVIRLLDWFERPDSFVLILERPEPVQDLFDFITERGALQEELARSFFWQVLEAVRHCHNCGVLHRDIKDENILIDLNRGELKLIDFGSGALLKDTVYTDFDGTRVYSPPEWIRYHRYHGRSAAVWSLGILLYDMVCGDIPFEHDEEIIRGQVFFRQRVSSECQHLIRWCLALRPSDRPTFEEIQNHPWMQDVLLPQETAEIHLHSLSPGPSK

MCF-7 cells [2] = assay: MTT viability assay, MCF-7; format: cell-based; conditions: Homo sapiens
Procedure: as §1, §2, §3

MCF-7 cells [3] = assay: Cell cycle progression by flow cytometry, MCF-7; format: cell-based, human; conditions: MCF-7, 72 h, compound at its EC50
[4] = target: human CK2 catalytic subunit (CK2α) (Homo sapiens, UniProt P68400); assay: Radiometric (P81 filter isotopic) kinase assay, CK2 catalytic subunit; format: biochemical; conditions: for remaining activity at 5 µM: 5 µM compound; for remaining activity at 5 µM / remaining activity at 10 µM: read-out: Residual Activity of the Enzyme CK2α; for remaining activity at 10 µM: 10 µM compound
Chain of human CK2 catalytic subunit (CK2α) (P68400 whole entry): as the sequence (P68400 whole entry) above

[5] = 24 h, read-out: EC50 ± SD MDA-MB-231
[6] = 48 h, read-out: EC50 ± SD MDA-MB-231
[7] = 72 h, read-out: EC50 ± SD MDA-MB-231
[8] = MCF7, 24 h, read-out: EC50 ± SD MCF-7
[9] = MCF7, 48 h, read-out: EC50 ± SD MCF-7
[10] = MCF7, 72 h, read-out: EC50 ± SD MCF-7
[11] = 24 h, 48 h and 72 h, read-out: EC50 MDA-MB-231
[12] = MCF7, 24 h, 48 h and 72 h, read-out: EC50 MCF-7

Row | Compound | remaining activity at 5 µM [1] [%] | remaining activity at 10 µM [1] [%] | EC50 (MDA-MB-231 cells; [5]) [µM] | EC50 (MDA-MB-231 cells; [6]) [µM] | EC50 (MDA-MB-231 cells; [7]) [µM] | remaining activity at 5 µM (PIM1) [%] | remaining activity at 10 µM (PIM1) [%] | Ki (PIM1) [µM] | EC50 (MCF-7 cells [2]; [8]) [µM] | EC50 (MCF-7 cells [2]; [9]) [µM] | EC50 (MCF-7 cells [2]; [10]) [µM] | cells in G1 (MCF-7 cells [3]) [%] | cells in G2M (MCF-7 cells [3]) [%] | cells in S (MCF-7 cells [3]) [%] | remaining activity at 5 µM [4] [%] | remaining activity at 10 µM [4] [%] | melting point [°C] | also measured
1 | Cc1nc2c(Br)c(Br)c(Br)c(Br)c2[nH]1 [Compound 4, 4,5,6,7-tetrabromo-2-methyl-1H-benzimidazole, reference compound] | 6 ± 0.9 | 2.9 ± 0.2 | 12.8 ± 6.6 | 5.35 ± 0.82 | 4.73 ± 0.48 | 8 ± 0.9 | 4.5 ± 0.2 | 0.21 ± 0.02 | 4.12 ± 0.03 | 4.2 ± 0.29 | 2.66 ± 0.19 | 53.6 | 16.7 | 29.7 | 18.8 ± 1.1 | 7.7 ± 3.3 |  | Ki [1]: 0.11 ± 0.04 µM
2 | OCCCn1cnc2c(Br)c(Br)c(Br)c(Br)c21 [Compound 2] |  |  | 54.6 ± 4.32 | 27.2 ± 0.49 | 20.6 ± 0.86 | 17.2 ± 2.3 | 10.1 ± 1 | 0.42 ± 0.02 | 24.1 ± 1.39 | 20.1 ± 1.36 | 19.6 ± 1.68 | 51.0 | 14.4 | 34.6 |  |  |  | 
3 | CCCC(=O)OCCCn1cnc2c(Br)c(Br)c(Br)c(Br)c21 [Compound 3a, (4,5,6,7-Tetrabromo-1H-benzimidazol-1-yl)propyl butanoate] | 58 ± 4 | 34.8 ± 3.4 | 40.8 ± 1.58 | 27.8 ± 1.31 | 24.5 ± 0.48 | 65 ± 2.8 | 24.4 ± 0.9 | 2.23 ± 0.07 | 29.3 ± 1.24 | 23.1 ± 0.77 | 21.5 ± 1.86 | 57.8 | 13.8 | 28.4 | 71 ± 9.5 | 59.1 ± 3.7 | 96 to 97 | 
4 | CCCCCCCCCCCC(=O)OCCCn1cnc2c(Br)c(Br)c(Br)c(Br)c21 [Compound 3d, 3-(4,5,6,7-Tetrabromo-1H-benzimidazol-1-yl)propyl dodecanoate] |  |  | > 100 | > 100 | > 100 |  |  |  | > 100 | > 100 | > 100 |  |  |  |  |  | 59 to 60 | EC50 (MDA-MB-231 cells; [11]): > 100 µM; EC50 (MCF-7 cells [2]; [12]): > 100 µM
5 | CCCCCC(=O)OCCCn1cnc2c(Br)c(Br)c(Br)c(Br)c21 [Compound 3b, 3-(4,5,6,7-Tetrabromo-1H-benzimidazol-1-yl)propyl hexanoate] | 85.5 ± 8.3 | 83.1 ± 7.5 | 95.6 ± 20.4 | 32.2 ± 3.26 | 27.3 ± 1.26 | 85 ± 0.1 | 74.2 ± 11.2 |  | 39.6 ± 1.06 | 28.4 ± 1.71 | 24.8 ± 1.33 | 60.5 | 12.2 | 27.3 | 89.3 ± 8 | 83 ± 13 | 65 to 67 | 
6 | O=C(O)c1ccc2c(c1)nc(Nc1cccc(Cl)c1)c1ccncc12 [CX-4945, silmitasertib, reference compound] | 0 | 0 |  |  |  | 2.3 ± 0.1 |  |  |  |  |  | 33.6 | 22.0 | 44.4 | 0 | 0 |  | 
7 | CCCCCCCCCCCC(=O)OCCCn1c(C)nc2c(Br)c(Br)c(Br)c(Br)c21 [Compound 6d, (4,5,6,7-Tetrabromo-2-methyl-1H-benzimidazol-1-yl)propyl dodecanoate] |  |  | > 100 | > 100 | > 100 |  |  |  | > 100 | > 100 | > 100 |  |  |  |  |  | 69 to 70 | EC50 (MDA-MB-231 cells; [11]): > 100 µM; EC50 (MCF-7 cells [2]; [12]): > 100 µM
8 | Cc1nc2c(Br)c(Br)c(Br)c(Br)c2n1CCCO [Compound 5] | 14.2 ± 2 | 9.1 ± 0.6 | 57.8 ± 20.8 | 21 ± 9.85 | 9.99 ± 0.44 | 9.3 ± 2.6 | 3.4 ± 0.3 | 0.15 ± 0.08 | 17.6 ± 6.35 | 16 ± 5.31 | 4.9 ± 2.71 | 60.2 | 13.5 | 26.3 | 26.1 ± 3.5 | 16.3 ± 1 | 227 to 230 | Ki [1]: 0.05 ± 0.01 µM; Ki ([4]; calculated from IC50 by Cheng and Prusoff equation): 0.2 ± 0.08 µM

Reference: article PMC8230474, “Synthesis of Novel Acyl Derivatives of 3-(4,5,6,7-Tetrabromo-1H-benzimidazol-1-yl)propan-1-ols—Intracellular TBBi-Based CK2 Inhibitors with Proapoptotic Properties” (International Journal of Molecular Sciences, 2021)
